# Laboratory results reported in US9714266B2, “Estra-1,3,5(10),16-tetraene-3-carboxamides for inhibition of 17β-hydroxysteroid dehydrogenase (AKR1C3)” (priority 2013, dated 2017).
# Several values for one entry are separate records, joined by “and”; a condition that tells them apart may be missing. Equal entries are not always repeated.
# Target: AKR1C3 (Homo sapiens (Human), UniProt P42330)
# Assay: AKR1C3 enzyme assay (coumberone reduction, fluorescence)
# Type: biochemical
# Conditions: recombinant human AKR1C3, coumberone 0.3 μM, NADPH 10 μM; read-out: AKR1C3 enzyme inhibition IC50
# Method: The AKR1C3-inhibitory action of the substances of this invention was measured in the AKR1C3 assay described in the paragraphs which follow. Essentially, the enzyme activity is measured by quantifying the coumberol formed from coumberone ([…]., and […]. AM. CHEM. SOC. 130, 14123-14128 (2008) […]., Bauman, D. R., Penning, T. M., and […]., Proc. Natl. Acad. Sci. USA 103, 13304-13309 (2006)). In this assay, the increase in the highly fluorescent coumberol can be determined by NADPH (nicotinamide adenine dinucleotide phosphate)-dependent reduction of the nonfluorescent coumberone by AKR1C3. […] NM_003739). This was expressed as the GST (glutathione S-transferase) fusion protein in E. coli and purified by means of glutathione-Sepharose affinity chromatography. The GST was removed by thrombin digestion with subsequent size exclusion chromatography (Dufort, I., Rheault, P., Huang, X F., Soucy, P., and Luu-The, V., Endocrinology 140, 568-574 (1999)). […] The concentration of the AKR1C3 was matched to the respective activity of the enzyme preparation and set such that the assay worked within the linear range. Typical concentrations were in the region of 1 nM. The reaction was stopped by adding 5 μl of a stop solution consisting of the inhibitor EM-1404 [F. Labrie et al. U.S. Pat. […] Subsequently, the fluorescence of coumberol was measured at 520 nm (excitation at 380 nm) with a suitable measuring instrument (Pherastar from BMG Labtechnologies).
# AKR1C3, sequence (P42330 whole entry): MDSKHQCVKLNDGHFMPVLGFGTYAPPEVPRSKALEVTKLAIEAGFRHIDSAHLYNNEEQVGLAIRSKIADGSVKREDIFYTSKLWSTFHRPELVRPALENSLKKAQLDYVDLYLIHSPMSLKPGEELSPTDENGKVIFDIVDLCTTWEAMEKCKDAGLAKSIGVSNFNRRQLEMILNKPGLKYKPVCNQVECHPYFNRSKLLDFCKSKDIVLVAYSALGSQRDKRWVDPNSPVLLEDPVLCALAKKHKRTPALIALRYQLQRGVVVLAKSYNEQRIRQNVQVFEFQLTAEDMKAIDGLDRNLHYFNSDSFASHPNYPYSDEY
row,SMILES,IC50
1,"C[C@]12CC[C@@H]3c4ccc(C(=O)NC5(CO)CCCC5)cc4CC[C@H]3[C@@H]1CC=C2c1cncc(F)c1 [Example 13, 17-(5-fluoropyridin-3-yl)-N-[1-(hydroxymethyl)cyclopentyl]oestra-1,3,5(10),16-tetraene-3-carboxamide]",0.108 µM and 0.079 µM
2,"CNS(=O)(=O)CCNC(=O)c1ccc2c(c1)CC[C@@H]1[C@@H]2CC[C@]2(C)C(c3cncc(C(F)(F)F)c3)=CC[C@@H]12 [Example 25, N-[2-(N-methylsulphamoyl)ethyl]-17-[5-(trifluoromethyl)pyridin-3-yl]oestra-1,3,5(10),16-tetraene-3-carboxamide]",0.048 µM
3,"C[C@]12CC[C@@H]3c4ccc(C(=O)N5CCC(O)CC5)cc4CC[C@H]3[C@@H]1CC=C2c1cncc(F)c1 [Example 14, 17-(5-fluoropyridin-3-yl)oestra-1,3,5(10),16-tetraen-3-yl 4-hydroxypiperidin-1-yl ketone]",0.054 µM and 0.037 µM
4,"C[C@]12CC[C@@H]3c4ccc(C(=O)N[C@H]5CCC[C@@H]5O)cc4CC[C@H]3[C@@H]1CC=C2c1cncc(F)c1 [Example 11, 17-(5-fluoropyridin-3-yl)-N-[(1S,2S)-2-hydroxycyclopentyl]oestra-1,3,5(10),16-tetraene-3-carboxamide]",0.034 µM and 0.02 µM
5,"C[C@]12CC[C@@H]3c4ccc(C(=O)NCCS(N)(=O)=O)cc4CC[C@H]3[C@@H]1CC=C2c1cncc(C(F)(F)F)c1 [Example 24, N-(2-sulphamoylethyl)-17-[5-(trifluoromethyl)pyridin-3-yl]oestra-1,3,5(10),16-tetraene-3-carboxamide]",0.017 µM
6,"CN(CCCO)C(=O)c1ccc2c(c1)CC[C@@H]1[C@@H]2CC[C@]2(C)C(c3cncc(F)c3)=CC[C@@H]12 [Example 34, 17-(5-fluoropyridin-3-yl)-N-(3-hydroxypropyl)-N-methyloestra-1,3,5(10),16-tetraene-3-carboxamide]",0.006 µM
7,"CCNC(=O)c1ccc2c(c1)CC[C@@H]1[C@@H]2CC[C@]2(C)C(c3cncc(F)c3)=CC[C@@H]12 [Example 39, N-ethyl-17-(5-fluoropyridin-3-yl)oestra-1,3,5(10),16-tetraene-3-carboxamide]",0.005 µM
8,"C[C@]12CC[C@@H]3c4ccc(C(=O)NCCC(N)=O)cc4CC[C@H]3[C@@H]1CC=C2c1cncc(F)c1 [Example 26, N-(3-amino-3-oxopropyl)-17-(5-fluoropyridin-3-yl)oestra-1,3,5(10),16-tetraene-3-carboxamide]",0.005 µM
9,"C[C@]12CC[C@@H]3c4ccc(C(=O)NCCS(N)(=O)=O)cc4CC[C@H]3[C@@H]1CC=C2c1cncnc1 [Example 47, 17-(pyrimidin-5-yl)-N-(2-sulphamoylethyl)oestra-1,3,5(10),16-tetraene-3-carboxamide]",0.119 µM
10,"CN(CCO)C(=O)c1ccc2c(c1)CC[C@@H]1[C@@H]2CC[C@]2(C)C(c3cncc(F)c3)=CC[C@@H]12 [Example 44, 17-(5-fluoropyridin-3-yl)-N-(2-hydroxyethyl)-N-methyloestra-1,3,5(10),16-tetraene-3-carboxamide]",0.012 µM
11,"C[C@H](O)CNC(=O)c1ccc2c(c1)CC[C@@H]1[C@@H]2CC[C@]2(C)C(c3cncc(F)c3)=CC[C@@H]12 [Example 45, 17-(5-fluoropyridin-3-yl)-N—[(S)-2-hydroxypropyl]oestra-1,3,5(10),16-tetraene-3-carboxamide]",0.006 µM
12,"CC(C)N(CCO)C(=O)c1ccc2c(c1)CC[C@@H]1[C@@H]2CC[C@]2(C)C(c3cncc(F)c3)=CC[C@@H]12 [Example 19, 17-(5-fluoropyridin-3-yl)-N-(2-hydroxyethyl)-N-isopropyloestra-1,3,5(10),16-tetraene-3-carboxamide]",0.06 µM and 0.048 µM
13,"C[C@]12CC[C@@H]3c4ccc(C(N)=O)cc4CC[C@H]3[C@@H]1CC=C2c1cncc(C(F)(F)F)c1 [Example 3, 17-[5-(trifluoromethyl)pyridin-3-yl]oestra-1,3,5(10),16-tetraene-3-carboxamide]",0.046 µM and 0.025 µM
14,"CC(C)(CNC(=O)c1ccc2c(c1)CC[C@@H]1[C@@H]2CC[C@]2(C)C(c3cncc(F)c3)=CC[C@@H]12)NS(C)(=O)=O [Example 31, 17-(5-fluoropyridin-3-yl)-N-{2-methyl-2-[(methylsulphonyl)amino]propyl}oestra-1,3,5(10),16-tetraene-3-carboxamide]",0.019 µM
15,"C[C@]12CC[C@@H]3c4ccc(C(=O)NCCOCCO)cc4CC[C@H]3[C@@H]1CC=C2c1cncc(F)c1 [Example 46, 17-(5-fluoropyridin-3-yl)-N-[2-(2-hydroxyethoxy)ethyl]oestra-1,3,5(10),16-tetraene-3-carboxamide]",0.006 µM
16,"C[S+]([O-])CCNC(=O)c1ccc2c(c1)CC[C@@H]1[C@@H]2CC[C@]2(C)C(c3cncc(F)c3)=CC[C@@H]12 (some centres unmarked) [Example 37, 17-(5-fluoropyridin-3-yl)-N-[2-(methylsulphinyl)ethyl]oestra-1,3,5(10),16-tetraene-3-carboxamide]",0.005 µM
17,"C[C@]12CC[C@@H]3c4ccc(C(N)=O)cc4CC[C@H]3[C@@H]1CC=C2c1cncc(C#N)c1 [Example 6, 17-(5-cyanopyridin-3-yl)oestra-1,3,5(10),16-tetraene-3-carboxamide]",0.346 µM
18,"C[C@]12CC[C@@H]3c4ccc(C(=O)N[C@H]5CCC[C@H]5O)cc4CC[C@H]3[C@@H]1CC=C2c1cncc(F)c1 [Example 9, 17-(5-fluoropyridin-3-yl)-N-[(1S,2R)-2-hydroxycyclopentyl]oestra-1,3,5(10),16-tetraene-3-carboxamide]",0.061 µM and 0.081 µM
19,"CC[C@@H](CO)NC(=O)c1ccc2c(c1)CC[C@@H]1[C@@H]2CC[C@]2(C)C(c3cncc(F)c3)=CC[C@@H]12 [Example 15, 17-(5-fluoropyridin-3-yl)-N—[(S)-1-(hydroxymethyl)propyl]oestra-1,3,5(10),16-tetraene-3-carboxamide]",0.025 µM
20,"CCN(CCO)C(=O)c1ccc2c(c1)CC[C@@H]1[C@@H]2CC[C@]2(C)C(c3cncc(F)c3)=CC[C@@H]12 [Example 32, N-ethyl-17-(5-fluoropyridin-3-yl)-N-(2-hydroxyethyl)oestra-1,3,5(10),16-tetraene-3-carboxamide]",0.011 µM
21,"C[C@]12CC[C@@H]3c4ccc(C(=O)NC[C@@H](O)CO)cc4CC[C@H]3[C@@H]1CC=C2c1cncc(F)c1 [Example 36, N—[(R)-2,3-dihydroxypropyl]-17-(5-fluoropyridin-3-yl)oestra-1,3,5(10),16-tetraene-3-carboxamide]",0.006 µM
22,"CC(O)C(C)NC(=O)c1ccc2c(c1)CCC1C2CCC2(C)C(c3cncc(F)c3)=CCC12 [Example 18, rel-17-(5-fluoropyridin-3-yl)-N-[(1R,2R)-2-hydroxy-1-methylpropyl]oestra-1,3,5(10),16-tetraene-3-carboxamide]",0.045 µM and 0.035 µM
23,"COc1cncc(C2=CC[C@H]3[C@@H]4CCc5cc(C(N)=O)ccc5[C@H]4CC[C@]23C)c1 [Example 2, 17-(5-methoxypyridin-3-yl)oestra-1,3,5(10),16-tetraene-3-carboxamide]",0.189 µM and 0.1 µM
24,"CC(C)(CO)CNC(=O)c1ccc2c(c1)CC[C@@H]1[C@@H]2CC[C@]2(C)C(c3cncc(F)c3)=CC[C@@H]12 [Example 10, 17-(5-fluoropyridin-3-yl)-N-[2-(hydroxymethyl)-2-methylpropyl]oestra-1,3,5(10),16-tetraene-3-carboxamide]",0.097 µM and 0.046 µM
25,"COCCNC(=O)c1ccc2c(c1)CC[C@@H]1[C@@H]2CC[C@]2(C)C(c3cncc(F)c3)=CC[C@@H]12 [Example 41, 17-(5-fluoropyridin-3-yl)-N-(2-methoxyethyl)oestra-1,3,5(10),16-tetraene-3-carboxamide]",0.008 µM
26,"C[C@]12CC[C@@H]3c4ccc(C(=O)NCCS(N)(=O)=O)cc4CC[C@H]3[C@@H]1CC=C2c1cccnc1 [Example 23, 17-(3-pyridyl)-N-(2-sulphamoylethyl)oestra-1,3,5(10),16-tetraene-3-carboxamide]",0.009 µM
27,"CC(C)S(=O)(=O)CCNC(=O)c1ccc2c(c1)CC[C@@H]1[C@@H]2CC[C@]2(C)C(c3cncc(F)c3)=CC[C@@H]12 [Example 42, 17-(5-fluoropyridin-3-yl)-N-[2-(isopropylsulphonyl)ethyl]oestra-1,3,5(10),16-tetraene-3-carboxamide]",0.011 µM
28,"C[C@]12CC[C@@H]3c4ccc(C(N)=O)cc4CC[C@H]3[C@@H]1CC=C2c1cncnc1 [Example 5, 17-(pyrimidin-5-yl)oestra-1,3,5(10),16-tetraene-3-carboxamide]",0.313 µM and 0.199 µM and 0.143 µM
29,"CNC(=O)CCNC(=O)c1ccc2c(c1)CC[C@@H]1[C@@H]2CC[C@]2(C)C(c3cncc(F)c3)=CC[C@@H]12 [Example 27, 17-(5-fluoropyridin-3-yl)-N-[3-(methylamino)-3-oxopropyl]oestra-1,3,5(10),16-tetraene-3-carboxamide]",0.005 µM
